≈ marks a conversion by molar mass, not a printed value.
Legend:
[1] = Determination of logD (1-octanol / phosphate buffer pH 7.4); assay type: physicochemical; details: 1-octanol/phosphate buffer, pH 7.4, pH 7.4, 1-octanol/phosphate buffer; read-out: Log D, pH 7.4
Protocol: Preparation of phosphate buffer saturated with 1-octanol: 10 mL of 100 mM phosphate buffer (pH 7.4) was added to 100 mL of 1-octanol. The mixture was shaken vigorously and left to stand at room temperature overnight.
Preparation of 1-octanol saturated with phosphate buffer: 10 mL of 1-octanol was added to 100 mL of 100 mM phosphate buffer (pH 7.4). The mixture was shaken vigorously and left to stand at room temperature overnight.
149 μL of phosphate buffer saturated with 1-octanol was added into 1st sample tube. 149 μL of 1-octanol saturated with phosphate buffer was added into the 2nd sample tube. The sample tubes were mixed vigorously and shaken for 1 hour at a speed of 800 rpm at room temperature. The sample tubes were subjected to centrifugation at 4000 rpm for 5 minutes at room temperature. Samples of the supernatant were taken from both tubes, diluted with an appropriate LCMS buffer, and analyzed on an LCMS instrument. LogD was calculated according to the following equation.

[2] = target: KRAS G12C (GMPPNP-loaded) and cRAF (Ras-binding domain) interaction (Homo sapiens (Human), UniProt P01116, C118S/C51S/C80L/G12C); experiment: Inhibition of KRAS G12C and cRAF binding (AlphaScreen); details: KRAS G12C loaded with GMPPNP, cRaf RBD, 2 hours preincubation; read-out: Raf-1 RBD K-Ras IC50
Sequence of KRAS G12C (GMPPNP-loaded) and cRAF (Ras-binding domain) interaction (P01116 other isoform, or with tags, fused parts or gaps G12C/C51S/C80L/C118S): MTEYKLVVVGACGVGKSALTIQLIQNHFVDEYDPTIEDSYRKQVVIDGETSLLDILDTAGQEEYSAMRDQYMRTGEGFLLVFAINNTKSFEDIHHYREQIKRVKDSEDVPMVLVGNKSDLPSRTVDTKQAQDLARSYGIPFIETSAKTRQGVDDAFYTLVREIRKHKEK
Procedure, shortened: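 AlphaScreen readout (680 nm excitation, 570 nm emission) of RBD binding after a 60-90 min bead step at room temperature. This step follows 2 h compound exposure of GMPPNP-preloaded KRAS G12C in Hepes pH 7.4 buffer with MgCl2 and 10 μM GMPPNP.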

[3] = Determination of kinetic solubility (pH 7.4); assay type: physicochemical; details: phosphate buffer, pH 7.4, aqueous buffer, kinetic from dmso stock, 50 mM phosphate buffer pH 7.4, read-out: Ksol, pH 7.4
Protocol: 490 μL of a 50 mM phosphate buffer (pH 7.4) was added to the sample solution. The mixture was vortexed for at least 2 minutes. The vial was shaken on a Barnstead shaker at 800 rpm at room temperature for 2 hours. The vial was centrifuged at 4000 rpm for 20 minutes. The Mini-UniPrep vial was compressed to prepare a filtrate, which was injected into an HPLC-UV and LC-MS/MS system. Kinetic solubility was calculated by referencing sample peak areas to a standard calibration curve.

Compound	logD [1]	IC50 [2] [nM]	solubility kinetic at 2 h [3] [µg/mL]
N#CC[C@H]1CN(c2nc(OC[C@@]34CCCN3C[C@H](F)C4)nc3c(F)c(-c4cccc(Cl)c4C4CC4)ncc23)CCN1C(=O)/C=C/CN1C2COCC1C2 [Compound 278]	3.3	< 10	66.6 (≈ 89.4 µM)
N#CC[C@H]1CN(c2nc(OC[C@@]34CCCN3C[C@H](F)C4)nc3c(F)c(-c4cccc(Cl)c4C(F)(F)F)ncc23)CCN1C(=O)/C=C/CN1C[C@H]2C[C@@H]1CO2 [Compound 294]	2.59	< 10	127 (≈ 165 µM)
CC1(c2noc(/C=C/C(=O)N3CCN(c4nc(OCC56CCCN5CCC6)nc5c(F)c(-c6cccc7cccc(Cl)c67)ncc45)C[C@@H]3CC#N)n2)CC1 [Compound 118]	3.24	100 to 500	4.73 (≈ 6.32 µM)
N#CC[C@H]1CN(c2nc(OC[C@@]34CCCN3C[C@H](O)C4)nc3c2CCN(c2cccc4cccc(Cl)c24)C3)CCN1C(=O)/C=C/CN1CCOCC1 [Compound 316]	2.66	< 10	124 (≈ 170 µM)
CN(C)C/C=C/C(=O)N1CCN(c2nc(OC[C@@]34CCCN3C[C@H](F)C4)nc3c(F)c(-c4cccc(Cl)c4C(F)(F)F)ncc23)C[C@@H]1CC#N [Compound 114, 2-((S)-4-(7-(3-chloro-2-(trifluoromethyl)phenyl)-8-fluoro-2-(((2R,7aS)-2-fluorotetrahydro-1H-pyrrolizin-7a(5H)-yl)methoxy)pyrido[4,3-d]pyrimidin-4-yl)-1-((E)-4-(dimethylamino)but-2-enoyl)piperazin-2-yl)acetonitrile]	2.35	< 10	121 (≈ 168 µM)
N#CC[C@H]1CN(c2nc(OCC34CCCN3CCC4)nc3c2CCN(c2cccc4cccc(Cl)c24)C3)CCN1C(=O)/C=C/CN1C[C@H]2COC[C@H]2C1 [Compound 195]	2.44	10 to 100	149 (≈ 202 µM)
CC(C)c1noc(/C=C/C(=O)N2CCN(c3nc(OC[C@@]45CCCN4C[C@H](F)C5)nc4c(F)c(-c5nc(N)cc6cccc(Cl)c56)ncc34)C[C@@H]2CC#N)n1 [Compound 122]	3.43	10 to 100	0.44 (≈ 0.571 µM)
C[C@H]1CN(C/C=C/C(=O)N2CCN(c3nc(OC[C@@]45CCCN4C[C@H](F)C5)nc4c(F)c(-c5cccc(Cl)c5C5CC5)ncc34)C[C@@H]2CC#N)C[C@H](C)O1 [Compound 302]	4.21	< 10	118 (≈ 155 µM)
Cc1cc(/C=C/C(=O)N2CCN(c3nc(OC[C@@]45CCCN4C[C@H](F)C5)nc4c(F)c(-c5cccc6ccc(F)c(C)c56)ncc34)C[C@@H]2CC#N)nc(C)n1 [Compound 105, 2-((S)-1-((E)-3-(2,6-dimethylpyrimidin-4-yl)acryloyl)-4-(8-fluoro-7-(7-fluoro-8-methylnaphthalen-1-yl)-2-(((2R,7aS)-2-fluorotetrahydro-1H-pyrrolizin-7a(5H)-yl)methoxy)pyrido[4,3-d]pyrimidin-4-yl)piperazin-2-yl)acetonitrile]	3.99	< 10	2.36 (≈ 3.16 µM)

The remaining lines, values ahead:

logD [1]	IC50 [2] [nM]	solubility kinetic at 2 h [3] [µg/mL]	Compound
4.52	100 to 500	0.01 (≈ 0.0128 µM)	N#CC[C@H]1CN(c2nc(OC[C@@]34CCCN3C[C@H](F)C4)nc3c(F)c(-c4cccc5cccc(Cl)c45)ncc23)CCN1C(=O)/C=C/c1nc(C2CC2)ncc1F [Compound 158]
4.05	10 to 100	0.55 (≈ 0.729 µM)	Cc1ncc(F)c(/C=C/C(=O)N2CCN(c3nc(OC[C@@]45CCCN4C[C@H](F)C5)nc4c(F)c(-c5cccc6cccc(Cl)c56)ncc34)C[C@@H]2CC#N)n1 [Compound 157]
3.14	10 to 100	76.2 (≈ 101 µM)	N#CC[C@H]1CN(c2nc(OC[C@@]34CCCN3C[C@H](F)C4)nc3c(F)c(-c4cccc5cccc(Cl)c45)ncc23)CCN1C(=O)/C=C/CN1CCOC2CC21 (stereo partly drawn) [Compound 274]
2.96	10 to 100	69.5 (≈ 93.9 µM)	Cc1c(F)ccc2cccc(-c3ncc4c(N5CCN(C(=O)/C=C/CN6CCOCC6)[C@@H](CC#N)C5)nc(OC[C@@]56CCCN5C[C@H](F)C6)nc4c3F)c12 [Compound 246]

— patent publication US20250129103A1, “METHODS FOR TREATMENT OF CANCER” (Frontier Medicines Corporation, priority 2022, published 2025)
